Source: ChEMBL document CHEMBL5321227, “Lysosome-targeting phenalenones as efficient type I/II photosensitizers for anticancer photodynamic therapy” (Eur J Med Chem, 2023)
Calls of active or inactive are those of the source. No cut-off for these calls is given here.

How the values were obtained:
MDA-MB-231 [1] = test: Anticancer activity against human MDA-MB-231 cells assessed as reduction in cell viability at 1 uM incubated for 24 hrs in presence of irradiation with 500 to 700nm and 12 J/cm^2 LED light by CCK-8 assay; type: functional, cell-based
4T1 [2] = test: Anticancer activity against mouse 4T1 cells assessed as reduction in cell viability at 1 uM incubated for 24 hrs under photoirradiation with 500 to 700nm and 12 mW/cm^2 LED light by CCK-8 assay; type: functional, cell-based
[3] = Photostability of compound in EtOH assessed as compound decomposition at 50 uM incubated for 5 to 20 mins under photoirradiation with 550nm and 10 J/cm^2 LED light by UV-visible spectroscopic analysis; type: physicochemical; conditions: time 5-20 min
[4] = Induction of singlet oxygen production in ethanol assessed as change in absorption spectra at 380nm under photoirradiation with 550nm and 10 J/cm^2 LED light for 2 to 20 mins by ABDA based microplate reader analysis; type: functional; conditions: time 2-20 min
[5] = Induction of superoxide anion radical production in aqueous solution assessed as increase in fluorescence intensity at 5 uM under photoirradiation with 550nm and 10 J/cm^2 LED light and measured after 8 mins by DHR123 based fluorescence spectroscopic analysis
[6] = Drug uptake in human MDA-MB-231 cells assessed as increase in intracellular uptake at 5 uM incubated for 10 mins by flow cytometry analysis; type: ADME, cell-based; conditions: mda-mb-231, 10 min
[7] = Drug uptake in human MDA-MB-231 cells assessed as increase in intracellular uptake at 5 uM incubated for 2 hrs by flow cytometry analysis; type: ADME, cell-based; conditions: mda-mb-231, 2 h
MDA-MB-231 [8] = test: Induction of intracellular ROS generation in human MDA-MB-231 cells assessed as fold increase in intracellular ROS level at 2.5 uM incubated for 2 hrs followed by under photoirradiation with 500 to 700nm and 12 J/cm^2 LED light by DCFH-DA staining based fluorometric analysis relative dark control group; type: functional
MDA-MB-231 [9] = test: Anticancer activity against human MDA-MB-231 cells assessed as reduction in cell viability incubated for 24 hrs by CCK-8 assay; type: functional, cell-based; conditions: MDA-MB-231, 24 h
MDA-MB-231 [10] = test: Anticancer activity against human MDA-MB-231 cells assessed as reduction in cell viability incubated for 24 hrs in presence of irradiation with 500 to 700nm and 12 J/cm^2 LED light by CCK-8 assay; type: functional, cell-based; conditions: MDA-MB-231, light or radiation study
MDA-MB-231 [11] = test: Phototoxicity against human MDA-MB-231 cells assessed as reduction in cell viability incubated for 24 hrs in presence of irradiation with 500 to 700nm and 12 J/cm^2 LED light by CCK-8 assay; type: functional, cell-based
[12] = Drug localization in lysosome of human MDA-MB-231 cells assessed as increase in apparent yellow fluorescent signal at 5 uM incubated for 2 hrs by Lyso-Tracker Green, ER-Tracker Green, Mito-Tracker Green and Hoechst 33342 staining based confocal laser scanning microscopy; type: ADME, subcellular; conditions: mda-mb-231, 2 h
4T1 [13] = test: Anticancer activity against mouse 4T1 cells assessed as fold increase in gamma-H2A.X protein expression at 1 uM preincubated for 2 hrs followed by photoirradiation with 500 to 700nm and 12 J/cm^2 LED light and measured after 24 hrs by Western blot analysis relative to control; type: functional; conditions: time 26 hrs
4T1 [14] = test: Anticancer activity against mouse 4T1 cells assessed as fold increase in cleaved caspase-3 protein expression at 1 uM preincubated for 2 hrs followed by photoirradiation with 500 to 700nm and 12 J/cm^2 LED light and measured after 24 hrs by Western blot analysis relative to control; type: functional; conditions: time 26 hrs
4T1 [15] = test: Anticancer activity against mouse 4T1 cells assessed as reduction in cell viability incubated for 24 hrs in presence of irradiation with 500 to 700nm and 12 J/cm^2 LED light by CCK-8 assay; type: functional, cell-based; conditions: 4T1, light or radiation study
[16] = Stability of compound in various pH; type: physicochemical
[17] = Induction of singlet oxygen production in ethanol assessed as singlet oxygen quantum yield at 410nm under photoirradiation with 550nm and 10 mW/cm^2 LED light for 10 to 80 secs by DPBF based microplate reader analysis; type: functional; conditions: time 10-80 sec
[18] = Drug metabolism in carboxylesterase (unknown origin) assessed as formation of active photosensitizer 6-amino-5-iodo-1H-phenalen-1-one by measuring increase in fluorescence at 610nM at 10 uM under by fluorescence assay; type: ADME; conditions: human
[19] = Drug metabolism in carboxylesterase (unknown origin) assessed as formation of active photosensitizer 6-amino-5-iodo-1H-phenalen-1-one at 10 uM under by LC-MS/MS analysis assay; type: ADME; conditions: human
[20] = Stability of compound in GSH at 10 uM incubated for 30 mins by fluorescence assay; type: physicochemical; conditions: 0.5 h
[21] = Stability of compound in H2O2 at 10 uM incubated for 30 mins by fluorescence assay; type: physicochemical; conditions: 0.5 h
[22] = Stability of compound in gamma-glutamyl transpeptidase at 10 uM incubated for 30 mins by fluorescence assay; type: physicochemical; conditions: 0.5 h
[23] = Drug metabolism in human MDA-MB-231 cells assessed as increase in SR expression at 5 uM incubated for 12 hrs by flow cytometry analysis; type: ADME, cell-based; conditions: mda-mb-231, 12 h
MDA-MB-231 [24] = test: Anticancer activity against human MDA-MB-231 cells assessed as reduction in cell viability at 0.01 to 10 uM incubated for 24 hrs by CCK-8 assay; type: functional, cell-based; conditions: dose 0.01-10 µM
4T1 [25] = test: Anticancer activity against mouse 4T1 cells assessed as reduction in cell viability at 0.01 to 10 uM incubated for 24 hrs by CCK-8 assay; type: functional, cell-based; conditions: dose 0.01-10 µM
MDA-MB-231 [26] = test: Anticancer activity against human MDA-MB-231 cells assessed as reduction in cell viability preincubated for 12 hrs followed by photoirradiation with 500 to 700nm and 12 J/cm^2 LED light for 24 hrs by CCK-8 assay; type: functional, cell-based; conditions: MDA-MB-231, light or radiation study
4T1 [27] = test: Anticancer activity against mouse 4T1 cells assessed as reduction in cell viability preincubated for 12 hrs followed by photoirradiation with 500 to 700nm and 12 J/cm^2 LED light for 24 hrs by CCK-8 assay; type: functional, cell-based; conditions: 4T1, light or radiation study
MDA-MB-231 [28] = test: Anticancer activity against human MDA-MB-231 cells assessed as number of dead cells at 2.5 uM incubated for 12 hrs by calcein-AM and propidium iodide staining based flow cytometry; type: functional, cell-based
MDA-MB-231 [29] = test: Anticancer activity against human MDA-MB-231 cells assessed as number of dead cells at 2.5 uM preincubated for 12 hrs followed by photoirradiation with 500 to 700nm and 12 J/cm^2 LED light for 10 mins by calcein-AM and propidium iodide staining based flow cytometry; type: functional, cell-based; conditions: time 12.2 hrs

## Nc1c(I)cc2c3c(cccc13)C(=O)C=C2
MDA-MB-231 [1]
  Activity: Active
4T1 [2]
  Activity: Active
[3]
  Stability: Stable
[4]
  Activity: Active
[5]
  Activity: Active
[6]
  Drug uptake: Active
[7]
  Drug uptake: Active
MDA-MB-231 [8]
  fold change (FC): 5.54
MDA-MB-231 [9]
  IC50: > 50 µM
MDA-MB-231 [10]
  IC50: 0.66 µM
MDA-MB-231 [11]
  Activity: Active
[12]
  Drug uptake: Active
4T1 [13]
  fold change (FC): 2.36
4T1 [14]
  fold change (FC): 3.09
4T1 [15]
  IC50: 0.59 µM

## O=C(Nc1c(I)cc2c3c(cccc13)C(=O)C=C2)c1ccccc1
[3]
  Stability: Stable
[16]
  Stability: Stable
[17]
  Activity: 0.1
[18]
  Drug metabolism: Metabolite_Detected
[19]
  Drug metabolism: Metabolite_Detected
[20]
  Stability: Stable
[21]
  Stability: Stable
[22]
  Stability: Stable
[23]
  Drug metabolism: Metabolite_Detected
MDA-MB-231 [24]
  Activity: Active
4T1 [25]
  Activity: Active
MDA-MB-231 [26]
  IC50: 4 µM
4T1 [27]
  IC50: 4.8 µM
MDA-MB-231 [28]
  Activity: inactive
MDA-MB-231 [29]
  Activity: Active

## Nc1ccc2c3c(cccc13)C(=O)C=C2
[4]
  Activity: inactive
